# Assays:
# rat red blood cells = assay: S-nitrosation of intraerythrocytic Hb on incubation of red blood cells with RSNOs; type: cell-based; conditions: oxygenated rat red blood cells
# Experimental: Incubation of rat erythrocytes with S-nitrosocysteine (equimolar to heme (5 mM); phosphate buffer pH 7.4, 25° C.) leads to rapid formation of intracellular SNO-Hb(FeII)O2. […] By 60 min, 3 of the 4 available SH groups of Hb were S-nitrosated (note that rat Hb contains 4 reactive SH groups). […] Spectrum A is that of SNO-Hb isolated from erythrocytes following G-25 chromatography. Treatment of A with dithionite results in reduction of the S—NO moiety, liberating free NO which is autocaptured by deoxy Hb, forming Hb(FeII)NO (note that dithionite simultaneously deoxygenates Hb) (spectrum C). […] The spectrum of Hb(FeII)NO containing 4 NO's per tetramer is shown for comparison (inset, spectrum B).
# At shown intervals, red blood cells were pelleted rapidly by centrifugation, washed three times, lysed in deionized water at 4° C., and the cytosolic fraction subjected to rapid desalting across G-25 columns. Intracellular SNO-Hb was measured by the method of Saville (Gaston, B., et al., (1992); Stamler, J. S., et al., Proc. Natl. Acad. Sci. USA, 89:444-448 (1992)), and confirmed spectroscopically (inset of FIG. 3A) as described above.
# rabbit aortic ring = assay: Vessel ring bioassay of SNO-Hb preparations (Examples 4, 13); type: cell-based; conditions: for vasoactivity in vascular ring bioassay: no added thiol (FIG. 4A)
# Experimental: Details of the vessel ring bioassay have been published (Stamler, J. S., et al., Proc. Natl. Acad. Sci. USA 89:444-448 (1992)). SNO-Hb(FeII)O2 preparations were synthesized with 10-fold excess S-nitrosocysteine (CYSNO) over Hb(FeII)O2 protein (2% borate, 0.5 mM EDTA, ˜15 min incubation), after which desalting was performed across Sephadex G-25 columns. CYSNO was synthesized in 0.5 N HCl, 0.5 mM EDTA and then neutralized (1:1) in 1 M phosphate buffer containing 0.5 mM EDTA. […] The latter was synthesized by treatment of Hb(FeII)O2 with excess ferricyanide, followed by desalting across G-25 columns. SNO-Hb concentrations were verified spectroscopically and the S-nitrosothiol content was determined by the method of Saville (Stamler, J. S., et al., Proc. Natl. Acad. Sci USA 89:444-448 (1992)). The S—NO/tetramer stoichiometry for both SNO-Hb preparations was ˜2. Oxidation of the heme was undetectable by uv-spectrophotometric methods.
# The aortic ring bioassay was performed as described in Example 4. The product of the reaction in which a ratio of 100:1 CYSNO/Hb tetramer was used, contains 2 SNOs as well as NO attached to the heme.
# [1] = system: rabbit thoracic aortic rings, endothelium removed; assay: Oxygen-dependent vessel ring bioassay (Examples 22, 23); type: cell-based
# [2] = system: substantia nigra, caudate putamen nucleus and parietal cortex of Sprague-Dawley rats; assay: O2-dependent local cerebral blood flow in rats (Example 25); type: in vivo, rat; conditions: 1 μmol/kg infused over 3 minutes
# Experimental: Adult male Sprague-Dawley rats (290-350 g) were anesthetized with sodium pentobarbital (50 mg/kg IP), intubated and ventilated with a small animal respirator (Edco Scientific Inc., Chapel Hill, N.C.) at a rate and tidal volume to maintain normal values of PaCO2 (35-45 mm Hg; PaCO2=systemic arterial blood carbon dioxide tension). The femoral vein and artery were cannulated for infusion of drugs and for continuous monitoring of systemic blood pressure, respectively. Aliquots of arterial blood (200 μl) were drawn periodically to measure blood gas tensions and pH (Instrumentation Laboratory Co., model 1304 blood gas/pH analyzer). The blood was replaced intravenously with three volumes of normal saline. The inspired O2 concentration was varied using premixed gases balanced with nitrogen. The tissue PO2 was measured continuously with polarographic platinum microelectrodes (50 μm O.D. coated with hydrophobic gas permeable Nafion) implanted stereotaxically in both the right and left hippocampus (AP-3.4 mm, ML+2.2 mm), caudate putamen nucleus and substantia nigra (see coordinates below) (Young, W., Stroke, 11:552-564 (1980); Heiss, W. D. and Traupett, H., Stroke, 12:161-167 (1981); Dewhirst, M. W. et al., Cancer Res., 54:3333-3336 (1994); Kerger, H. et al., Am. J. Physiol., 268:H802-H810 (1995)). The PO2 electrodes were polarized to −0.65V against a distant Ag/AgCl reference located on the tail and the current flow was measured using a low-impedance nA-meter. Regional arterial PO2 was adjusted by changing the inspired O2 concentration and atmospheric pressure.
# Polarographic hydrogen (H2)-sensitive microelectrodes were implanted stereotaxically in the substantia nigra (AP −5.3 mm, ML −2.4 mm to the bregma, depth 3.2 mm), caudate putamen nucleus (CPN) (AP +0.8 mm, ML −2.5 mm, depth 5.2 mm) and parietal cortex, for measurement of regional blood flow (Young, W., Stroke, 11:552-564 (1980); Heiss, W. D. and Traupett, H., Stroke, 12:161-167 (1981)). The microelectrodes were made from platinum wire and insulated with epoxy, with the exception of the tip (1 mm) which was coated with Nafion. For placement, the electrodes were mounted on a micromanipulator and the rat's head was immobilized in a Kopf stereotaxic frame. H2-sensitive electrodes were polarized to +400 mV against a distant reference electrode on the tail, and the polarographic current was measured using a low-impedance nA meter during and after the inhalation of hydrogen gas (2.5%) for 1 min. Both the hydrogen clearance curves and voltage for oxygen measurements were made using PC WINDAQ (software, DI-200 AC, Dataq Instruments, Inc., Akron, Ohio). Cerebral blood flow was calculated using the initial slope method (Young, W., Stroke, 11:552-564 (1980); Heiss, W. D. and Traupett, H., Stroke, 12:161-167 (1981)). Regional blood flow responses were monitored for 30 min. prior to and 30 min. following drug administration; hemoglobins were given at time 0.
# The cerebrovascular effects of SNO-Hb were measured in adult male Sprague-Dawley rats using O2 and H2 (blood flow)-sensitive microelectrodes that were placed stereotaxically in several regions of the brain as for Example 24.
# [3] = system: rat brain (caudatoputamen nucleus); assay: Brain blood flow in rats by H2 clearance (Example 12); type: in vivo; conditions: rats breathing 21% O2; 100 or 1000 nmol/kg
# Experimental: SNO-Hb(FeII)O2, having a SNO/Hb ratio of 2, was prepared (from HbA0) by reaction with S-nitrosothiol. Rats breathing 21% O2 were injected (time 0) with Hbs prepared from HbA0 as indicated in FIG. 10 (open circles, SNO-Hb (100 nmol/kg); filled circles, SNO-Hb (1000 nmol/kg); filled squares, unmodified Hb (1000 nmol/kg)). Three rats were used per experiment. Blood flow was measured in brain using the H2 clearance method; microelectrodes were placed in the brain stereotactically. […] NO group release is promoted by local tissue hypoxia.
# Sprague-Dawley rat = assay: Mean arterial blood pressure in anesthetized rats after femoral vein bolus (Examples 5, 6); type: in vivo; conditions: 2-200 nmol/kg bolus
# Text: Rats were anesthetized by intraperitoneal injection of pentobarbital and the femoral arteries and veins accessed by local cut down. The artery was then cannulated and the blood pressure monitored continuously using a Viggo Spectramed pressure transducer attached to a Gould recorder. An IBM PC (DATA Q Codas) was used for data acquisition.
# [4] = Decomposition and stability of SNO-Hb forms; type: physicochemical
# Experimental: Hbs in PBS (0.5 mM EDTA, pH 7.4) were incubated in air (oxy) or in a tonometer previously evacuated of O2 (deoxy). SNO-Hb(FeII)O2 decomposition was determined by the method of Saville (Saville, B., Analyst 83:670-672 (1958)). Spontaneous decomposition of SNO-Hb(FeII) was followed spectrophotometrically by formation of Hb(FeII)NO. Transnitrosation reactions with glutathione were performed by addition of 100-fold excess glutathione over protein (50 μM), immediate processing of the reaction mixture under anaerobic conditions followed by rapid TCA precipitation, and analysis of RSNO in the supernatant. Rates of NO group transfer were too rapid to measure accurately by the standard methods used in this study.
molecule,measurement,setting,value
N[C@@H](CCSN=O)C(=O)O [S-nitrosohomocysteine],formation of intraerythrocytic SNO-Hb on treatment of red blood cells,rat red blood cells,formed
N[C@@H](CSN=O)C(=O)O [S-nitrosocysteine],formation of intraerythrocytic SNO-Hb on treatment of red blood cells,rat red blood cells,very rapid formation of intracellular SNO-Hb(FeII)O2
100:1 CYSNO/Hb product: Hb treated with 100:1 S-nitrosocysteine; contains 2 SNOs as well as NO attached to the heme (polynitrosated),potency in aortic ring bioassay,rabbit aortic ring; Hb treated with S-nitrosocysteine 100:1 (FIG. 11),much greater than that of SNO-Hb(FeIII)
"N[C@@H](CCC(=O)N[C@@H](CSN=O)C(=O)NCC(=O)O)C(=O)O [GSNO, S-nitrosoglutathione]","vasorelaxant effects, dependence on PO2","[1]; 95%, 21%, <1% O2 (FIG. 20D)",largely independent of PO2
same,local cerebral blood flow,[2]; 100% O2 + 3 ATA,increased brain perfusion
same,local cerebral blood flow,[2]; 100% O2,increased brain perfusion
same,formation of intraerythrocytic SNO-Hb on treatment of red blood cells,rat red blood cells,not
"SNO-Hb: S-nitrosohemoglobin, hemoglobin S-nitrosylated at thiol groups (cysβ93)",effect on vessel tone,"[1]; 1 μM, rings contracted with phenylephrine under hypoxic conditions (6-7 torr)",relaxations
same,effect of 10 μM glutathione on the response,[1]; 10 μM glutathione in bioassay chambers,potentiates the vasorelaxant response
same,effect on vessel tension,[1]; 95% O2 or 21% O2 (R-structure),contract blood vessels
same,effect on vessel tension,"[1]; <1% O2 (~6 torr), T-structure",does not
same,blood flow to the brain,[3],improves blood flow to the brain
same,local cerebral blood flow,[2]; 21% O2,improved blood flow in all three regions of the brain tested
same,local cerebral blood flow,[2]; 100% O2 + 3 ATA,tended to decrease cerebral flow to similar extents
same,local cerebral blood flow,[2]; 100% O2,significantly attenuated
"Hb(FeII)O2: oxyhemoglobin, cell-free, not S-nitrosated [reference compound]",effect of added glutathione on the dose-response,rabbit aortic ring; glutathione 100 ∥M in bioassay chambers (FIG. 4B),did not significantly influence the response
same,vasoactivity in vascular ring bioassay,rabbit aortic ring,Contractile effects
same,time for elevations in blood pressure to reverse,Sprague-Dawley rat,10 to 15 min
"Hb(FeIII): methemoglobin, heme iron oxidized to FeIII [reference compound]",vasoactivity in vascular ring bioassay,rabbit aortic ring,contractile properties
"deoxyHb: deoxyhemoglobin, not S-nitrosated",effect on vessel tension,"[1]; <1% O2 (~6 torr), T-structure",powerful contractile agent
SNO-deoxyHb: S-nitroso-deoxyhemoglobin synthesized in an anaerobic environment,effect on vessel tension,"[1]; <1% O2 (~6 torr), T-structure",modest effect on baseline tone
same,stability of the isolated preparation,[4]; as synthesized in Example 27,highly unstable
same,rates of RSNO decomposition (and transfer),"[4]; deoxy conformation versus oxy state, PBS pH 7.4",much faster
"[N]=O [NO, nitric oxide, reference compound]",relaxant activity of free NO,rabbit aortic ring; in the presence of Hb(FeII)O2 or Hb(FeIII),devoid of relaxant activity
N[C@@H](CSN=O)C(=O)NCC(=O)O [S-nitrosocysteinylglycine],formation of intraerythrocytic SNO-Hb on treatment of red blood cells,rat red blood cells,formed

# Source: US7538193B2, “NO-modified hemoglobins and uses therefor” (Duke University, priority 1995, dated 2009)
